Assay results taken from publication PMC3853718 (Journal of Translational Medicine, 2013).
Like-named read-outs stand apart in the source and are kept apart here.

Tests used:
[1] = system: Rb protein phosphorylation; assay: Immunohistochemistry for phospho-Rb in skin biopsies; assay type: in vivo, human
Procedure: . The phosphorylation status of the Rb protein in the proliferative layer of skin and in the proliferating cells at the base of hair follicles was determined by IHC utilizing a rabbit anti-phospho-Rb antibody diluted to 0.83 μg/mL or 0.67 μg/mL. Immunohistochemistry staining was scored 0 (no staining relative to background), 1+ (weak staining), 2+ (moderate staining), or 3+ (strong staining); H-score was calculated as a measure of overall immunoreactivity in a given sample, using the following formula: H-score = (% of cells with 3+) × 3 + (% of cells with 2+) × 2 + (% of cells with 1+) × 1. Subjects were to be categorized as responders if no degree of staining was detected with the anti-phospho-Rb antibody.

Rb phosphorylation = details: cited from earlier work

CCc1cnn2c(NCc3ccc[n+]([O-])c3)cc(N3CCCC[C@H]3CCO)nc12 [dinaciclib]
mean phospho-Rb H score following treatment ([1]; RP2D 12 mg/m^2, 11 subjects, skin biopsy 4 hours after treatment, before treatment 18.55): 17.64
response based on phospho-Rb staining ([1]; responder = complete loss of phospho-Rb staining): no subjects were deemed to have achieved a response
Rb phosphorylation in mouse skin biopsies (Rb phosphorylation; 2 hours post treatment): partial loss
Rb phosphorylation in mouse skin biopsies (Rb phosphorylation; 4 hours post treatment): complete loss of Rb phosphorylation
